Key:
[1] = tested on: mouse vasa deferentia (MVD) preparation; experiment: mouse vas deferens test (MVD); type: cell-based; conditions: inhibition of contractions in vitro, active at IC50 of 5.0 μM or less
Description: Med. Assoc. 217, 1392 (1971)]. […] Opth. 7, 921-923 (1975); Green and Pederson, Effect of delta-9 Tetrahydrocannabinol on Aqueous Dynamics and Ciliary Body Permeability in the Rabbit Eye., Exptl. Eye Research 15, 499-507 (1973); Colasanti, Craig and Allara, Intraocular Pressure, Ocular Toxicity and Neurotoxicity after Administration of Cannabinol or Cannibigerol, Exptl. Eye Research 39, 252-259 (1984)]. Similarly, synthetic cannabinoids also reduce intraocular pressure [Green, Symunds, Oliver and Elijah, Intraocular Pressure Following Systemic Administration of Cannabinoids, Curr Eye Research 2, 247-253 (1982); Tiedeman, Shields, Weber, Crow, Coccetto, Harris and Howes, Ophthalmology, 88, 270-277 (1981); Colasanti et al., supra]. Cannabinoid receptor binding sites can be defined as those to which radio-labelled 4-(1,1-dimethylheptyl)-2,3'-dihydroxy-6'alpha-(3-hydroxypropyl)-1',2',3',4',5',6'-hexahydrobiphenyl (CP 55940) binds in a specific and saturable manner, and the binding sites are heterogeneously distributed in the brain [Devane, Dysarz, Johnson, Melvin and Howlett, Determination and Characterization of a Cannabinoid Receptor in Rat Brain, Molecular Pharm. 34, 605-613 (1988)]. Natural and synthetic cannabinoids and representative examples of the compounds of the present invention bind to CP 55940 binding sites. […]

[2] = topical application or systemic injection; cited from earlier work

| Compound | IC50 [1] [µM] | effect on intraocular pressure [2] |
| --- | --- | --- |
| O=C(c1ccc2ccccc2c1)c1cn(CCN2CCOCC2)c2ccccc12 [Example 1S] | 0.05 | – |
| CCCCCc1cc(O)c2c(c1)OC(C)(C)[C@@H]1CCC(C)=C[C@@H]21 [delta-9 tetrahydrocannabinol] | – | reduces intraocular pressure |

Reference: patent US5013837A, “3-Arylcarbonyl-1H-indole-containing compounds” (Sterling Drug Inc., priority 1990, dated 1991)
